As usually defined, the IC50 is the midpoint of a concentration-inhibition curve.

Seven molecules from PMC11289651, “Ruthenium(II) complexes of curcumin and β-diketone derivatives: effect of structural modifications on their cytotoxicity” (Royal Society Open Science, 2024) can be followed below.

Like-named read-outs stand apart in the source and are kept apart here.

What all share (assay type): cell-based
Data set [1] has as its system MDA-MB-231 (triple-negative breast cancer). The experiment in a line: MTT cytotoxicity assay, MDA-MB-231. The conditions noted are these: for IC50: read-out: IC50 MDA-MB-231; for SI^1 = IC50 (MCF-10A)/IC50 (MDA-MB-231): selectivity index. The protocol: (§1) HTB-26), MCF-7 (hormone-dependent breast cancer, ATCC: HTB−22), A549 (lung cancer, ATCC: CCL-185) and A2780cis (cisplatin-resistant ovarian cancer), and the non-tumour cell lines: MCF-10A (breast epithelial cells, ATCC: CRL-10317) and MRC-5 (lung fibroblast, ATCC: […] All the cells were maintained at 37°C in a humidified incubator with a 5% CO2 atmosphere. […] Then, the cells were treated with the compounds, solubilized in DMSO, at different concentrations and the plates were incubated for 48 h. To solubilize cisplatin, dimethylformamide (DMF) was used. The percentage of DMSO and DMF used in the assay was 0.5%. Afterwards, 50 μl of MTT (0.5 mg ml^−1 in phosphate-buffered saline) was added to each well of the plate and the plates were incubated for 4 h at 37°C. Then, the culture medium was removed, and the water-insoluble formazan crystals formed were solubilized by the addition of 100 μl isopropanol. The absorbance was recorded at 540 nm using a microplate reader. The half maximal inhibitory concentration (IC50) values were obtained using the GRAPHPAD PRISM software.
For orientation: Tetrazolium dyes change colour on reduction, which living cells bring about.

Data set [2] has as its system MCF-7 (hormone-dependent breast cancer). Kind of data set: MTT cytotoxicity assay, MCF-7. As to conditions: for IC50: read-out: IC50 MCF-7; for SI^2 = IC50 (MCF-10A)/IC50 (MCF-7): selectivity index; for IC50 fold lower than that of cisplatin: MCF-7 cells. The method, then: as §1
In data set [3] the test system is MCF-10A (non-tumour breast epithelial cells). The experiment in a line: MTT cytotoxicity assay, MCF-10A. As to conditions: read-out: IC50 MCF-10A. The protocol:
as §1

Data set [4] concerns A2780cis (cisplatin-resistant ovarian cancer). The experiment in a line: MTT cytotoxicity assay, A2780cis. As to conditions: for IC50: read-out: IC50 A2780cis; for SI^3 = IC50 (MRC-5)/IC50 (A2780cis): selectivity index, column head prints IS^3. The protocol: as §1
Data set [5] has as its system A549 (lung cancer). Kind of data set: MTT cytotoxicity assay, A549. As to conditions: for IC50: read-out: IC50 A549; for SI^4 = IC50 (MRC-5)/IC50 (A549): selectivity index, column head prints IS^4; for IC50 of cisplatin fold higher than IC50 of the complex: A549 cells. The protocol:
as §1

Data set [6] has as its system MRC-5 (non-tumour lung fibroblast). Kind of data set: MTT cytotoxicity assay, MRC-5. The conditions noted are these: read-out: IC50 MRC-5. The protocol: as §1
In data set [7] the test system is MDA-MB-231, MCF-7, A549, A2780cis, MRC-5 and MCF-10A cell lines. The experiment in a line: MTT cytotoxicity assay, all cell lines studied. The conditions noted are these: tested concentrations (<100 µM).
Procedure: The MDA-MB-231, A549 and MRC5 cell lines were cultured in Dulbecco’s modified eagle medium (DMEM) containing 10% fetal bovine serum (FBS), penicillin (100 IU ml^−1), streptomycin (100 mg ml^−1) and L-glutamine (2 mM). The MCF-7 and A2780cis cells were grown in the Roswell Park Memorial Institute (RPMI) containing 10% FBS, penicillin (100 IU ml^−1), streptomycin (100 mg ml^−1) and L-glutamine (2 mM). The MCF-10A cells were grown in DMEM nutrient mixture F-12 (DMEM F-12) containing 5% fetal horse serum, epidermal growth factor (EGF) (20 ng ml^−1), hydrocortisone (0.5 µg ml^−1), insulin (0.01 mg ml^−1), 1% penicillin and 1% streptomycin. All the cells were maintained at 37°C in a humidified incubator with a 5% CO2 atmosphere.
The cytotoxic activities of the free ligands and complexes were analysed by MTT (3-[4,5-dimethylthiazol-2-yl]-2,5 diphenyl tetrazolium bromide) assay [32]. For that, cells were plated in 96-well plates (1.5 × 10^4 cells well^−1) and kept for 24 h in an incubator with 5% CO2 and 37°C for adherence. Then, the cells were treated with the compounds, solubilized in DMSO, at different concentrations and the plates were incubated for 48 h. […] The percentage of DMSO and DMF used in the assay was 0.5%. […] The absorbance was recorded at 540 nm using a microplate reader.
The mark [8] stands for this setting: Homo sapiens, MDA-MB-231, MTT, 48 h incubation.
Where [9] appears, read: Homo sapiens, MCF7, MTT, 48 h incubation.
Setting [10] is: Homo sapiens, MCF-10A, MTT, 48 h incubation.
Where [11] appears, read: Homo sapiens, A549, MTT, 48 h incubation.
Where [12] appears, read: Homo sapiens, MRC5, MTT, 48 h incubation.

Turning to `COc1cc(/C=C/C(=O)CC(=O)/C=C/c2ccc(O)c(OC)c2)ccc1O` [cur, curcumin], the IC50 in data set [1] (setting [8]) amounted to 29.7 µM; in data set [2] (setting [9]), 20 µM; in data set [3] (setting [10]), 16.9 µM; in data set [4] (A2780cis, MTT, 48 h incubation), 4.02 µM; in data set [5] (setting [11]), 33.3 µM; in data set [6] (setting [12]), 8.99 µM. Moreover, in data set [1], the “SI^1 = IC50 (MCF-10A)/IC50 (MDA-MB-231)” value is reported as 0.57. In addition, in data set [2], the “SI^2 = IC50 (MCF-10A)/IC50 (MCF-7)” value was determined as 0.84. Moreover, the “SI^3 = IC50 (MRC-5)/IC50 (A2780cis)” value in data set [4] is 2.24. Also, the “SI^4 = IC50 (MRC-5)/IC50 (A549)” value in data set [5] came to 0.27.

Turning to `COc1cc(C=CC(=O)C=C([O-])C=Cc2ccc(O)c(OC)c2)ccc1O.F[P-](F)(F)(F)(F)F.[Ru+2].c1ccc(-c2ccccn2)nc1.c1ccc(P(c2ccccc2)c2ccccc2)cc1.c1ccc(P(c2ccccc2)c2ccccc2)cc1` [Ru3, [Ru(cur)(PPh3)2(bipy)]PF6], the IC50 in data set [1] (MTT, 48 h incubation) was 6.8 µM; in data set [3] (MTT, 48 h incubation) it was 6.41 µM; in data set [4] (MTT, 48 h incubation) it was 0.82 µM; in data set [5] (MTT, 48 h incubation) it was over 30 µM; in data set [6] (MTT, 48 h incubation), over 30 µM. Also, in data set [1], the “SI^1 = IC50 (MCF-10A)/IC50 (MDA-MB-231)” value was 0.94. For the same molecule, in data set [2], the “SI^2 = IC50 (MCF-10A)/IC50 (MCF-7)” value came to 0.45.

With `CC(=O)CC(C)=O` [acac, acetylacetonate], the IC50 in data set [1] (setting [8]) was over 100 µM; in data set [2] (setting [9]), over 100 µM; in data set [3] (setting [10]) it was over 100 µM; in data set [4] (A2780cis, MTT, 48 h incubation), over 100 µM; in data set [5] (setting [11]), over 100 µM; in data set [6] (setting [12]), over 100 µM. In addition, in data set [7], the “cytotoxic activity (in words)” value was “did not exhibit activity”.

Regarding `CC(=O)C=C(C)[O-].F[P-](F)(F)(F)(F)F.[Ru+2].c1ccc(-c2ccccn2)nc1.c1ccc(P(c2ccccc2)c2ccccc2)cc1.c1ccc(P(c2ccccc2)c2ccccc2)cc1` [Ru1, [Ru(acac)(PPh3)2(bipy)]PF6], the IC50 in data set [1] (MTT, 48 h incubation) was 2.09 ± 0.46 µM; in data set [2] (MTT, 48 h incubation) it was 1.86 µM; in data set [3] (MTT, 48 h incubation), 1.7 µM; in data set [4] (MTT, 48 h incubation), 0.59 µM; in data set [5] (MTT, 48 h incubation), 1.43 µM; in data set [6] (MTT, 48 h incubation) it was 4.92 µM. The “SI^1 = IC50 (MCF-10A)/IC50 (MDA-MB-231)” value in data set [1] turned out to be 0.81. Further, in data set [2], the “IC50 fold lower than that of cisplatin” value is 7.5 fold. In addition, the “SI^2 = IC50 (MCF-10A)/IC50 (MCF-7)” value in data set [2] came to 0.91. Besides, in data set [4], the “SI^3 = IC50 (MRC-5)/IC50 (A2780cis)” value is on record as 8.34. In addition, the “IC50 of cisplatin fold higher than IC50 of the complex” value in data set [5] is 8 fold. Also, in data set [5], the “SI^4 = IC50 (MRC-5)/IC50 (A549)” value is given as 3.44.

`N.N.[Cl][Pt][Cl]` [cisplatin, cis-diamminedichloridoplatinum(II)]: the half-inhibitory concentration (IC50) in data set [1] (MTT, 48 h incubation) came to 10.2 µM; in data set [2] (MTT, 48 h incubation) it was 14 µM; in data set [3] (MTT, 48 h incubation), 29.4 µM.

As for `F[P-](F)(F)(F)(F)F.O=C(C=C([O-])c1ccccc1)c1ccccc1.[Ru+2].c1ccc(-c2ccccn2)nc1.c1ccc(P(c2ccccc2)c2ccccc2)cc1.c1ccc(P(c2ccccc2)c2ccccc2)cc1` [Ru2, [Ru(dbm)(PPh3)2(bipy)]PF6], the IC50 in data set [1] (MTT, 48 h incubation) stood at 3.37 µM; in data set [2] (MTT, 48 h incubation) it was 1.74 µM; in data set [3] (MTT, 48 h incubation), 1.71 µM; in data set [4] (MTT, 48 h incubation), 0.39 µM; in data set [5] (MTT, 48 h incubation) it was 1.06 µM; in data set [6] (MTT, 48 h incubation), 4.85 µM. Further, in data set [1], the “SI^1 = IC50 (MCF-10A)/IC50 (MDA-MB-231)” value is on record as 0.50. Further, the “IC50 fold lower than that of cisplatin” value in data set [2] is listed as 8.0 fold. Moreover, in data set [2], the “SI^2 = IC50 (MCF-10A)/IC50 (MCF-7)” value is given as 0.98. Further, the “SI^3 = IC50 (MRC-5)/IC50 (A2780cis)” value in data set [4] came out at 12.43. Moreover, the “IC50 of cisplatin fold higher than IC50 of the complex” value in data set [5] is reported as 11 fold. In addition, the “SI^4 = IC50 (MRC-5)/IC50 (A549)” value in data set [5] is recorded as 4.57.

Take `O=C(CC(=O)c1ccccc1)c1ccccc1` [dbm, dibenzoylmethane]: the IC50 is 59.6 µM in data set [1] (Homo sapiens, MDA-MB-231, 48 h); 11.7 µM in data set [2] (Homo sapiens, MCF7, 48 h); 50.7 µM in data set [3] (Homo sapiens, MCF-10A, 48 h); 62.6 µM in data set [4] (A2780cis, 48 h); 23.1 µM in data set [5] (Homo sapiens, A549, 48 h); 9.54 µM in data set [6] (Homo sapiens, MRC5, 48 h). The “SI^1 = IC50 (MCF-10A)/IC50 (MDA-MB-231)” value in data set [1] came to 0.85. Also, the “SI^2 = IC50 (MCF-10A)/IC50 (MCF-7)” value in data set [2] is recorded as 4.34. In addition, the “SI^3 = IC50 (MRC-5)/IC50 (A2780cis)” value in data set [4] worked out at 0.15. For the same molecule, the “SI^4 = IC50 (MRC-5)/IC50 (A549)” value in data set [5] is 0.41.
